These results are taken from US9121859B2, “Compounds and methods for determination of FKBP-binding immunosuppressant drugs” (Siemens Healthcare Diagnostics Inc., priority 2012, dated 2015).

Assay [1] concerns endogenous specific binding proteins (FKBP) in whole blood. Nature of the assay: ACMIA assay for sirolimus: release of sirolimus from endogenous binding substances in spiked whole blood by releasing agent. Particulars: for Displacement efficiency compared with mixture of V and VI: sirolimus assay, result in words; for Drug concentration measured / Percent (%) displaced vs. SIRO: releasing agent 10 μg/mL. As to the method:
(§1) Testing was carried out using the DIMENSION® RxL analyzer, available from Siemens Healthcare Diagnostics Inc., Newark Del. The instrument was employed using ACMIA immunoassay technology. The ACMIA assay method is described in U.S. Pat. Nos. 7,842,475, 7,186,518, 5,147,529, 5,128,103, 5,158,871, 4,661,408, 5,151,348, 5,302,532, 5,422,284, 5,447,870, and 5,434,051, the disclosures of which are incorporated herein in their entirety. In the embodiment of the ACMIA method used herein and discussed in more detail below, competition between tacrolimus analog on chrome particles and tacrolimus in patient samples for antibody for tacrolimus conjugated to an enzyme (the “conjugate”) is utilized to determine the amount of tacrolimus in patient samples. Conjugate that binds to the tacrolimus analog on chrome particles is removed by magnetic separation. The enzymatic activity from the conjugate remaining in the supernatant is measured and is directly proportional to the amount of tacrolimus in the patient sample. […] The enzymatic activity observed when no chrome particle is present is indicative of the total amount of enzymatic activity in the conjugate.
(§2) Preparation of pretreatment reagent solution. This pretreatment solution was prepared to contain an amount of releasing agent, 6.8 mg/mL PIPES 1.5 sodium salt (buffer), 0.3 mg/mL EDTA disodium (clot prevention agent), 1.0 mg/mL saponin (hemolytic agent), 0.2% PROCLIN® 300 (preservative), 0.024 mg/mL neomycin sulfate (preservative) and 0.99 mg/mL NaN3, pH 6.5. The amount of releasing agent in each of the pretreatment reagent solutions was 10 μg/mL. The releasing agent concentration in the final reaction mixture was equivalent to 46.7 μg/mL of the analog added from the sample.
Preparation of anti-sirolimus antibody-β-galactosidase conjugate. […] The antibody conjugate solution contained approximately 7.5 μg/mL anti-sirolimus antibody-β-galactosidase conjugate, 30 mg/mL protease free bovine serum albumin, 0.126 mg/mL MgCl2, 0.03 mL/mL of ethylene glycol, 35.14 mg/mL PIPES 1.5 sodium salt, 50 mg/mL NaCl and beta-gal mutein (inactivated β-galactosidase), pH 6.5.
Magnetic chrome particle preparation. Sirolimus chrome particles (immunoassay solid phase) were prepared by conjugating sirolimus-biotin conjugate to streptavidin-coated chrome particle (prepared in a manner similar to that described in U.S. Pat. No. 7,842,475). The chrome particle reagent contained approximately 2.5 mg/mL sirolimus chrome particle slurry, 60.8 mg/mL trehalose dihydrate and 7.2 mg/mL CARBOWAX®.
(§3) Preparation of samples. Aliquots of a whole blood pool are spiked with an amount of sirolimus so that the resulting concentration of sirolimus in the whole blood samples in the calibrators is as set forth in Table 1 (0.0, 5.1, 10.1, 20.6 and 31.6 ng/mL). Aliquots of a whole blood pool are spiked with an amount of tacrolimus so that the resulting concentration of […] (0.0, 2.6, 5.3, 11.6 and 30.1 ng/mL).
(§4) Pretreatment of samples. A set of samples was treated as follows: To each sample was added an amount of the pretreatment reagent solution from above for displacing sirolimus in the sample from endogenous specific binding proteins. The samples were incubated at 37° C. for a period of 140 minutes. Subsequently, each sample was subjected to the aforementioned assay, which is further described below; and signal (mAU) was measured and related to a concentration of analyte that represents the amount of free analyte (analyte that is not bound by endogeneous binding substances plus analyte that was displaced from endogeneous binding substances) in the samples.
Assay. The ACMIA assay for sirolimus was carried out as follows: 15 μL of a whole blood sample from above was mixed with the pretreatment reagent solution from above (Displacer) (Table 1) in a vessel on the DIMENSION® RxL analyzer.

The subject of assay [2] is monoclonal anti-sirolimus antibody (clone 155-M1). Nature of the assay: Calculated cross-reactivity of releasing agent with antibody of the sirolimus ACMIA assay. It counts as binding. Particulars: for Cross-reactivity with the sirolimus assay antibody: result in words; for Calculated antibody cross-reactivity (percent (%) times 100): sirolimus assay, measured at calibrator of 0 ng/mL, measured value/46.7 μg/mL analog. As to the method:
(§5) Preparation of anti-sirolimus antibody-β-galactosidase conjugate. Monoclonal anti-sirolimus antibody (clone 155-M1 from Wyeth Pharmaceutical) was conjugated to β-galactosidase using a standard heterobifunctional SMCC (succinimidyl trans-4-(N-maleimidylmethyl)cyclohexane-1-carboxylate) linker according to known techniques. The antibody conjugate solution contained approximately 7.5 μg/mL anti-sirolimus antibody-β-galactosidase conjugate, 30 mg/mL protease free bovine serum albumin, 0.126 mg/mL MgCl2, 0.03 mL/mL of ethylene glycol, 35.14 mg/mL PIPES 1.5 sodium salt, 50 mg/mL NaCl and beta-gal mutein (inactivated β-galactosidase), pH 6.5.
(§6) Anti-sirolimus antibody-β-galactosidase conjugate (50 μL) was added next to each of the reaction vessels and the mixture was held for a period of time (10 to 15 minutes) and at a temperature of 43° C. to allow sirolimus, if present, to react with the antibody reagent. Chrome particles with immobilized sirolimus-biotin conjugate to streptavidin-coated chrome particle were added (50 μL) to each of the reaction vessels and were allowed to bind un-bound conjugate. […] The sirolimus-bound conjugate was detected by transferring the supernatant from each of the reaction vessels to a photometric cuvette and measuring the enzymatic rate of the conjugate in the presence of chlorophenol red-β-D-galactopyranoside (CPRG). The rate for each reaction vessel was measured bichromatically at 577 and 700 nm. The results are summarized in Table 1 under the categories: instrument signal observed for calibrators, drug concentration measured in ng/mL, percent (%) displaced vs. SIRO and calculated antibody cross-reactivity (percent (%) times 100). Cross-reactivity was based on the following: • 1) 70 μL of pretreatment reagent solution was added to the reaction medium versus 15 μL of sample, total reaction mixture volume=305 μL. • 2) 10 μg/mL of SIRO analog was in the pretreatment reagent solution. • 3) 10 μg/mL of SIRO analog from pretreatment reagent is equivalent to 46.7 μg/mL of SIRO analog added from sample (Calculation: 70 μL×10 μg/mL/15 μL=46.7 μg/mL) • 4) Measured sirolimus value at 0 ng/mL calibrator. • 5) Measure value/46.7 is % cross-reactivity.

The subject of assay [3] is endogenous specific binding proteins (FKBP) in whole blood. Nature of the assay: ACMIA assay for tacrolimus: release of tacrolimus from endogenous binding substances in spiked whole blood by releasing agent. Conditions: for Displacement efficiency compared with mixture of V and VI: tacrolimus assay, result in words; for Drug concentration measured / Percent (%) displaced vs. SIRO: releasing agent 10 μg/mL. The method, then:
as §1, §2
as §5, with “anti-tacrolimus” for “anti-sirolimus”, “1H6, see for example U.S. Pat. No. 7,078,495) is” for “155-M1 from Wyeth Pharmaceutical) was”, “contains” for “contained”
The chrome particle reagent contained approximately 2.5 mg/mL tacrolimus chrome particle slurry, 60.8 mg/mL trehalose dihydrate and 7.2 mg/mL CARBOWAX®.
as §3, §4
The above format for releasing an analyte (using the concentration of releasing agent (Displacer) shown) and conducting an assay for the analyte was repeated for samples containing tacrolimus.

The test system of assay [4] is monoclonal anti-tacrolimus antibody (clone 1H6). Nature of the assay: Calculated cross-reactivity of releasing agent with antibody of the tacrolimus ACMIA assay. It counts as binding. Particulars: measured at calibrator of 0 ng/mL. As to the method:
as §5, with “anti-tacrolimus” for “anti-sirolimus”, “1H6, see for example U.S. Pat. No. 7,078,495) is” for “155-M1 from Wyeth Pharmaceutical) was”, “contains” for “contained”
as §6, with “reagent.” for “reagent. Chrome particles with immobilized sirolimus-biotin conjugate to streptavidin-coated chrome particle were added (50 μL) to each of the reaction vessels and were allowed to bind un-bound conjugate.”, “cross-reactivity. […]” for “cross-reactivity.”

[5] abbreviates: sirolimus calibrator 10.1 ng/mL.
Setting [6] is: sirolimus calibrator 20.6 ng/mL.
The mark [7] stands for this setting: sirolimus calibrator 31.6 ng/mL.
Where [8] appears, read: tacrolimus calibrator 0.0 ng/mL.
[9] abbreviates: tacrolimus calibrator 2.6 ng/mL.
Setting [10] is: tacrolimus calibrator 5.3 ng/mL.
The mark [11] stands for this setting: tacrolimus calibrator 11.6 ng/mL.
Where [12] appears, read: tacrolimus calibrator 30.1 ng/mL.

“Diels-Alder adducts of diethyl azidodicarboxylate (DAC) and sirolimus [Mixture IX + X]”: the “Displacement efficiency compared with mixture of V and VI” value in assay [1] and in assay [3] was “lower displacement efficiency” throughout. Also, the “Drug concentration measured” value in assay [1] (sirolimus calibrator 0.0 ng/mL) worked out at 69.2 ng/mL; in assay [1] (sirolimus calibrator 5.1 ng/mL) it was 93.8 ng/mL; in assay [1] (setting [5]), 100.7 ng/mL; in assay [1] (setting [6]), 119.9 ng/mL; in assay [1] (setting [7]), 113.0 ng/mL; in assay [3] (setting [8]) it was 0.0 ng/mL. Besides, the “Drug concentration measured” value in assay [3] (setting [9]) was found to be 2.4 ng/mL; in assay [3] (setting [10]), 4.1 ng/mL; in assay [3] (setting [11]), 9.2 ng/mL; in assay [3] (setting [12]), 22.6 ng/mL. Moreover, the “Percent (%) displaced vs. SIRO” value in assay [1] (sirolimus calibrator 5.1 ng/mL) stood at 1844%; in assay [1] (setting [5]), 994%; in assay [1] (setting [6]), 584%; in assay [1] (setting [7]) it was 357%; in assay [3] (setting [9]), 90%; in assay [3] (setting [10]), 78%. Also, the “Percent (%) displaced vs. SIRO” value in assay [3] (setting [11]) came out at 79%; in assay [3] (setting [12]) it was 75%. Further, in assay [2], the “Cross-reactivity with the sirolimus assay antibody” value is given as “higher cross-reactivity”. For the same compound, the “Calculated antibody cross-reactivity (percent (%) times 100)” value in assay [2] is 14.82 % × 100; in assay [4], 0.01 % × 100.
As for `CO[C@H]1C[C@@H]2CC[C@@H](C)[C@@](O)(O2)C(=O)C(=O)N2CCCC[C@H]2C(=O)O[C@H]([C@H](C)C[C@@H]2CC[C@@H](O)[C@H](OC)C2)CC(=O)[C@H](C)/C=C(\C)[C@@H](O)[C@@H](OC)C(=O)[C@H](C)C[C@H](C)CCCCCC1C` (stereo partly drawn) [XI, hydrogenated sirolimus], the “Displacement efficiency compared with mixture of V and VI” value in assay [1] and in assay [3] was “lower displacement efficiency” in each case. Further, the “Drug concentration measured” value in assay [1] (sirolimus calibrator 0.0 ng/mL) is given as 72.7 ng/mL; in assay [1] (sirolimus calibrator 5.1 ng/mL), 82.5 ng/mL; in assay [1] (setting [5]) it was 96.4 ng/mL; in assay [1] (setting [6]), 94.0 ng/mL; in assay [1] (setting [7]), 85.2 ng/mL; in assay [3] (setting [8]), 0.3 ng/mL. For the same compound, the “Drug concentration measured” value is 1.8 ng/mL in assay [3] (setting [9]), 2.9 ng/mL in assay [3] (setting [10]), 5.6 ng/mL in assay [3] (setting [11]) and 16.0 ng/mL in assay [3] (setting [12]). Also, the “Percent (%) displaced vs. SIRO” value in assay [1] (sirolimus calibrator 5.1 ng/mL) stood at 1622%; in assay [1] (setting [5]), 951%; in assay [1] (setting [6]), 458%; in assay [1] (setting [7]), 269%; in assay [3] (setting [9]) it was 68%; in assay [3] (setting [10]) it was 54%. The figures for the “Percent (%) displaced vs. SIRO” value in assay [3] (setting [11]) and in assay [3] (setting [12]) were 48% and 53%, respectively. The “Cross-reactivity with the sirolimus assay antibody” value in assay [2] is “higher cross-reactivity”. Also, the “Calculated antibody cross-reactivity (percent (%) times 100)” value in assay [2] is on record as 15.56 % × 100; in assay [4], 0.06 % × 100.
Consider `C=CC[C@@H]1/C=C(\C)C[C@H](C)C[C@H](OC)[C@H]2O[C@@](O)(C(=O)C(=O)N3CCCC[C@H]3C(=O)O[C@H](/C(C)=C/[C@@H]3CC[C@@H](O)[C@H](OC)C3)[C@H](C)[C@@H](O)CC1=O)[C@H](C)C[C@@H]2OC` [Tacro, tacrolimus], for which, in assay [1], the “Displacement efficiency compared with mixture of V and VI” value was “lower displacement efficiency”. Besides, the “Drug concentration measured” value in assay [1] (sirolimus calibrator 0.0 ng/mL) is -0.1 ng/mL; in assay [1] (sirolimus calibrator 5.1 ng/mL), 2.6 ng/mL; in assay [1] (setting [5]) it was 4.1 ng/mL; in assay [1] (setting [6]), 7.7 ng/mL; in assay [1] (setting [7]) it was 13.0 ng/mL. Further, the “Percent (%) displaced vs. SIRO” value in assay [1] (sirolimus calibrator 5.1 ng/mL) worked out at 52%; in assay [1] (setting [5]), 40%; in assay [1] (setting [6]), 38%; in assay [1] (setting [7]) it was 41%. In addition, the “Calculated antibody cross-reactivity (percent (%) times 100)” value in assay [2] is listed as 0.00 % × 100.
